Results from PMC10999986, “Substrate specificity of a ketosynthase domain involved in bacillaene biosynthesis” (Beilstein Journal of Organic Chemistry, 2024).

Assays:
BaeJ-KS2 [1] = target: T1, BaeJ-KS2 (Bacillus amyloliquefaciens, UniProt Q1RS73); experiment: […] NMR of protein after incubation and ultrafiltration buffer exchange; format: binding; details: 25 °C, 30 min; labelled compound; active-site Cys replaced
T1 construct: excised second ketosynthase domain (KS2, module 4) of BaeJ, His-tagged, heterologously expressed, Ni-NTA purified

BaeJ-KS2 [2] = target: T1, BaeJ-KS2; experiment: […] NMR of protein after incubation and ultrafiltration buffer exchange; proteinase K digest; details: 25 °C, 30 min; labelled compound; covalent binding to active-site Cys proposed

T1 sequence (Q1RS73 entry or part of it): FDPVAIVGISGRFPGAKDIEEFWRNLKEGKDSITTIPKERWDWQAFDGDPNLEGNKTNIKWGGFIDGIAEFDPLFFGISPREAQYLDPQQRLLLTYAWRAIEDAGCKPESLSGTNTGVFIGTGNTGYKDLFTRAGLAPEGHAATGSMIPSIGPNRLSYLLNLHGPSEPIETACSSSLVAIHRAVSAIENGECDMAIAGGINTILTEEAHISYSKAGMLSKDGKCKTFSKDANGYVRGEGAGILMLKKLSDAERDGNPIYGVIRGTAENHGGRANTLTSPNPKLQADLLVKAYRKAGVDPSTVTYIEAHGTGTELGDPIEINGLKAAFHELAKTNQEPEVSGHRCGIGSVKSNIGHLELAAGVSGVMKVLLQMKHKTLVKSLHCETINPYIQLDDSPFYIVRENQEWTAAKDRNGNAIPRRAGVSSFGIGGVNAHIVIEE

| SMILES | thioester carbonyl 13C NMR signal (BaeJ-KS2 [1]) | 13C NMR of protein after incubation and ultrafiltration buffer exchange; protein (BaeJ-KS2 [2]) |
| --- | --- | --- |
| CC(=O)NCCSC(=O)CCCNC(=O)[C@H](O)CC(C)C [(R)-11] | (R)-11 is not bound to BaeJ-KS2-C222A after incubation and buffer exchange | This observation supports binding of both substrate surrogates to BaeJ-KS2 |
| CC(=O)NCCSC(=O)CCCNC(=O)[C@@H](O)CC(C)C [(S)-11] | No signal corresponding to a thioester carbonyl group was detected in the protein preparations | for both samples obtained from the incubations with (S)-11 and (R)-11 signals were detected |
